In US20060148767A1, “Use of acyl salicylates as heat shock inducers” (priority 2001, published 2006):

Assays:
human Hsp70 promoter = assay: Heat shock induction in L 929 fibroblast cells, luciferase under human Hsp70 promoter; type: cell-based, mouse; settings: for increase of heat shock response with respect to the control: 37° C.; for increase of heat shock response compared with the control: 40° C.
Protocol: Acetyl, propanoyl, n-butanoyl, n-octanoyl and n-decanoyl salicylates were tested for their ability to induce heat shock response in an in vitro system using L 929 fibroblast cells, in which the enzyme luciferase was cloned under the transcriptional control of the human Hsp70 promoter (Proc. Natl. Acad. Sci USA, 92, 7207-7211, 1995). The effects of the mentioned compounds on heat shock induction at different temperatures have been compared using Bimoclomol as reference compound (Table 1). As reported in Table 1, propanoyl salicylate and Bimoclomol at 37° C. increase the heat shock response by 33% with respect to the control, while n-butanoyl, n-octanoyl and n-decanoyl salicylates increase it up to 67%. […] (Nature Medicine, 3, 1150-1154, 1997).

heat shock response = settings: cited from earlier work
Hsp70 = assay: Heat shock response in NHEK cells, Hsp70 ELISA; type: cell-based; settings: NHEK keratinocytes, 18 hours at 37° C., no heat shock
Protocol: Acetyl, propanoyl, n-butanoyl, n-octanoyl and n-decanoyl salicylates, synthesized according to Example 1 or 2, were tested for their ability to induce heat shock response in an in vitro system using cells NHEK.
NHEK cells, grown at 37° C. to 75% confluence, were treated with different doses of propanoyl, n-butanoyl, n-octanoyl and n-decanoyl salicylates at a concentration range from 0 to 50 μM, using 50 mM sorbitol and heat shock at 42° C. as positive controls. After incubation for 18 hours at 37° C., Hsp70 levels were quantitatively determined on keratinocytes using the ELISA kit by StressGen.

UV-B induced erythema = assay: Prevention and repair of UV-B induced skin damage; type: in vivo; settings: guinea pigs, topical; untreated: erythema observed four hours after irradiation
Protocol: The effect of acyl-salicylates in the prevention and repair of UV-B induced skin damage was determined with an in vivo test, on female Hartley albino guinea pigs, using the propanoyl salicylate as model compound. The animals, that weighed about 400 g, were shaved with a commercial cream 24 h before irradiation. Propanoyl salicylate was applied 120 minutes before irradiation on the head distal area, on a 5 cm^2 rectangular area at a dose of about 2 mg/cm^2, the head proximal area serving as control site. A bank of four lamps providing a mean irradiation of about 1.2 mW/cm^2 at 310 nm was used as UV-B source. Following light exposure, sites were occluded with a cotton pad. The erythema following UV-B exposure was evaluated according to the following scale: not irradiated, 0, pale pink; slight erythema, 1, pink; moderate erythema, 2, intense pink; severe erythema, 3, intense pink, edema; ulcerated erythema, 4, intense pink, ulceration. One MED (minimal erythemal dose to obtain an erythema grade 1) for untreated animals corresponds to 5 minutes exposure at 400 mJ/cm^2. The protection effect was calculated as the ratio of protected skin MED to unprotected skin MED.

[1] = Stability as crystalline compound and in solution; type: physicochemical
Protocol: The mixture was stirred at room temperature for 30 minutes and kept at 70° C. for 2 hours. The reaction mixture was poured into ice water and the precipitated product was filtered in vacuo, dried and recrystallized tree times from toluene or ethanol as solvent. […] The ^1H-NMR spectrum of the synthesized propanoyl salicylate is consistent with the proposed structure.

[2] = target: heat shock transcription factor (HSF) (Homo sapiens, UniProt Q00613); settings: 2-30 mM; cited from earlier work
Chain of heat shock transcription factor (HSF) (Q00613 whole entry): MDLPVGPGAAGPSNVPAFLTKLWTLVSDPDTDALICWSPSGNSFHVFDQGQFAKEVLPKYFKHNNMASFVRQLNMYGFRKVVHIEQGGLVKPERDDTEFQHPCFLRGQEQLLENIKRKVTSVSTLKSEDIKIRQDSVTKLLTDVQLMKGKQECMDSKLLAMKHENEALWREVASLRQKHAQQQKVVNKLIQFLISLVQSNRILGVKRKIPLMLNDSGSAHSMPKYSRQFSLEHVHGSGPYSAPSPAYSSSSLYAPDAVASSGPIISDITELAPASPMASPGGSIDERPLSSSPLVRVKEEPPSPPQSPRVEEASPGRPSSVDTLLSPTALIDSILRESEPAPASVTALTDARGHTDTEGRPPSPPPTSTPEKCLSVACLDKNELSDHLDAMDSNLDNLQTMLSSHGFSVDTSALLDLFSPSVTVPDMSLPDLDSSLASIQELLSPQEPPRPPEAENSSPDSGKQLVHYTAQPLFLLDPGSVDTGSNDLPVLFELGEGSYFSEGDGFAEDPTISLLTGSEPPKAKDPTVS

[3] = temperature stress 37° C., control (None) 0.3
[4] = temperature stress 40° C., control (None) 4.6

Structure (SMILES)	increase of heat shock response with respect to the control (human Hsp70 promoter) [%]	increase of heat shock response compared with the control (human Hsp70 promoter) [%]	Luciferase activity (human Hsp70 promoter; [3]) [arbitrary units × 10^−5]	Luciferase activity (human Hsp70 promoter; [4]) [arbitrary units × 10^−5]	temperature of maximum induction activity (heat shock response) [°C]	increase of Hsp70 levels (Hsp70; 50 μM)	increase of Hsp70 levels (Hsp70; 5 μM)	time after UV-B irradiation at which erythema appeared in the treated area (UV-B induced erythema) [h]	stability [1]	heat shock gene transcription [2]
OC(CO/N=C(\Cl)c1cccnc1)CN1CCCCC1 (stereo not shown) [Bimoclomol, reference compound]	33	20	0.4	5.5	43					
CCCCCCCC(=O)OC(=O)c1ccccc1O [Octanoyl salicylate, n-octanoyl salicylate]			0.5	6.3		up to 130%				
CCC(=O)OC(=O)c1ccccc1O [Propanoyl salicylate]	33	107	0.4	9.5			up to 89%	7 to 10	compatible with its use in cosmetic and pharmaceutical formulations	
O=C([O-])c1ccccc1O.[Na+] [sodium salicylate]										does not induce heat shock gene transcription
